Tested on: mildew fungus Blumeria graminis f. sp. hordei (race A6)
Assay: Protective fungicide glasshouse trial on barley (mildew)
Type: in vivo
Settings: Table 6; Sulfur 250 g/ha, no adjuvant; 10 days after application
Text: The plants (barley) were cultivated under glass in exactly the same way as in the curative trial. For the protective trials, however, the plants were sprayed at about three weeks old with spray solutions containing the active fungicidal ingredient sulfur (Microthiol WG 80% sulfur from Stähler), either alone or in combination with adjuvants/additives. Furthermore, in order to test for synergy, the adjuvant was applied in the spray solution alone, in other words without sulfur. The sulfur dose was 1000 ppm/l, while the adjuvants were used in different doses (for doses see results tables). The amount of spray solution was 250 l/ha, and so the adjuvant concentration in the spray solution was not more than 0.1%; the sulfur dose was 250 g/ha. […]
The activity of the adjuvant alone, of the pesticide alone (i.e., of the fungicides or herbicides), and of the pesticide/adjuvant combination was calculated, in a manner known to the skilled person, in comparison to an untreated control sample, which was nevertheless inoculated with the mildew fungus, and expressed in % control of the disease.

Structure (SMILES): S1SSSSSSS1 [Sulfur, sulfur]
- Efficacy (%): 46%

Source: patent US9351485B2, “Use of sophorolipids and derivatives thereof in combination with pesticides as adjuvant/additive for plant protection and the industrial non-crop field” (EVONIK DEGUSSA GMBH, priority 2009, dated 2016)
